According to the supplement of paper PMC13380429:

What was measured:
Conditions in all cases: 72 h
[1] = system: HepG2; assay: drug sensitivity score (DSS) for viability; higher = more toxic; extreme values may be limits of the assay
[2] = system: Vero E6; assay: as above
[3] = system: Calu-3; assay: as above
[4] = system: U2OS; assay: as above
[5] = system: Caco-2; assay: as above
[6] = system: HepG2; assay: cell viability relative to DMSO; higher = less toxic
[7] = system: Vero E6; assay: as above
[8] = system: Calu-3; assay: as above
[9] = system: U2OS; assay: as above
[10] = system: Caco-2; assay: as above
[11] = system: HepG2; assay: relative viability EC50 (midpoint between 100% and the lowest measured viability); higher = less toxic
[12] = system: Vero E6; assay: as above
[13] = system: Calu-3; assay: as above
[14] = system: U2OS; assay: as above
[15] = system: Caco-2; assay: as above

| Compound | drug sensitivity score [1] | drug sensitivity score [2] | drug sensitivity score [3] | drug sensitivity score [4] | drug sensitivity score [5] | cell viability ([6]; 1 nM) [%] | cell viability ([6]; 10 nM) [%] | cell viability ([6]; 100 nM) [%] | cell viability ([6]; 1000 nM) [%] | cell viability ([6]; 10000 nM) [%] | cell viability ([7]; 1 nM) [%] | cell viability ([7]; 10 nM) [%] | cell viability ([7]; 100 nM) [%] | cell viability ([7]; 1000 nM) [%] | cell viability ([7]; 10000 nM) [%] | cell viability ([8]; 1 nM) [%] | cell viability ([8]; 10 nM) [%] | cell viability ([8]; 100 nM) [%] | cell viability ([8]; 1000 nM) [%] | cell viability ([8]; 10000 nM) [%] | cell viability ([9]; 1 nM) [%] | cell viability ([9]; 10 nM) [%] | cell viability ([9]; 100 nM) [%] | cell viability ([9]; 1000 nM) [%] | cell viability ([9]; 10000 nM) [%] | cell viability ([10]; 1 nM) [%] | cell viability ([10]; 10 nM) [%] | cell viability ([10]; 100 nM) [%] | cell viability ([10]; 1000 nM) [%] | cell viability ([10]; 10000 nM) [%] | relative viability EC50 [11] [µM] | relative viability EC50 [12] [µM] | relative viability EC50 [13] [µM] | relative viability EC50 [14] [µM] | relative viability EC50 [15] [µM] |
| --- | --- | --- | --- | --- | --- | --- | --- | --- | --- | --- | --- | --- | --- | --- | --- | --- | --- | --- | --- | --- | --- | --- | --- | --- | --- | --- | --- | --- | --- | --- | --- | --- | --- | --- | --- |
| COc1cc(O)c(C(=O)c2ccccc2)cc1S(=O)(=O)O [sulisobenzone] | 0 | 0 | 0 | 0 | 0 | 93.3 | 101 | 99.8 | 99.3 | 98.3 | 103 | 99.1 | 95.7 | 95.9 | 89.9 | 100 | 106 | 98.1 | 109 | 102 | 103 | 94.8 | 98.4 | 94.6 | 98.7 | 104 | 96.3 | 102 | 91.8 | 103 | > 10 | > 10 | > 10 | > 10 | > 10 |
| O=C1Nc2ccccc2C12OCC1(CO2)COC2(OC1)C(=O)Nc1ccccc12 (stereo not given) [JW-67] | 0 | 0.1 | 0.1 | 0 | 0 | 97.1 | 98.6 | 93.6 | 98.4 | 105 | 88.4 | 103 | 91.2 | 90.5 | 86 | 90.8 | 92.1 | 103 | 87.2 | 85.3 | 97.6 | 97.5 | 102 | 94.6 | 92.5 | 87.2 | 92.5 | 91.8 | 93.2 | 88.1 | > 10 | > 10 | > 10 | > 10 | > 10 |
| O=C(NC1CCNCC1)[C@@H]1CC[C@@H]2CN1C(=O)N2OS(=O)(=O)O [relebactam] | 0 | 0 | 0 | 0 | 0.3 | 93.9 | 109 | 94.1 | 108 | 95.3 | 99.1 | 97.2 | 97.9 | 102 | 104 | 110 | 103 | 99 | 107 | 98.2 | 102 | 107 | 103 | 101 | 100 | 92.6 | 108 | 89.4 | 94.6 | 90 | > 10 | > 10 | > 10 | > 10 | > 10 |
| O=C(O)c1cc(O)c2ccc(Cl)cc2n1 [7-chlorokynurenic-acid] | 0 | 0 | 0 | 0 | 0 | 106 | 104 | 100 | 101 | 97 | 96.7 | 102 | 94.2 | 95.3 | 108 | 99.9 | 94.1 | 98.4 | 98 | 108 | 101 | 97.6 | 96.4 | 94.3 | 108 | 102 | 96.1 | 97.1 | 99.1 | 109 | > 10 | > 10 | > 10 | > 10 | > 10 |
| O=C1C(CC[S+]([O-])c2ccccc2)C(=O)N(c2ccccc2)N1c1ccccc1 (stereo not given) [sulfinpyrazone] | 0 | 0 | 0 | 0 | 0 | 109 | 115 | 110 | 97.7 | 110 | 106 | 103 | 100 | 97.1 | 103 | 93.2 | 98 | 98.9 | 94 | 105 | 97.5 | 102 | 104 | 102 | 102 | 102 | 103 | 98.5 | 99.8 | 90.5 | > 10 | > 10 | > 10 | > 10 | > 10 |
| O=C(OCC(O)CO)c1ccccc1Nc1ccnc2c(C(F)(F)F)cccc12 (stereo not given) [floctafenine] | 0 | 0 | 0.7 | 0 | 0 | 101 | 106 | 107 | 105 | 92.2 | 98.3 | 107 | 95.4 | 101 | 104 | 108 | 98.5 | 95.9 | 98.7 | 81.1 | 101 | 99.4 | 100 | 98.5 | 93.4 | 92.2 | 90.2 | 95.9 | 92.5 | 96.9 | > 10 | > 10 | > 10 | > 10 | > 10 |
| C[C@@H]1Cc2c([nH]c3ccccc23)[C@@H](c2c(F)cc(/C=C/C(=O)O)cc2F)N1CC(C)(C)F [AZD9496] | 0 | 0 | 0 | 0 | 0 | 103 | 90 | 104 | 98.8 | 97.5 | 102 | 100 | 104 | 101 | 91.7 | 97.1 | 91.7 | 90.8 | 93.6 | 105 | 98.8 | 100 | 99 | 102 | 98.9 | 94.2 | 104 | 99.6 | 94.7 | 93.5 | > 10 | > 10 | > 10 | > 10 | > 10 |
| CN1CCN(C(=O)c2nc3ccc(Cl)cc3[nH]2)CC1 | 0 | 0 | 0 | 0 | 0 | 104 | 107 | 96.7 | 106 | 93.8 | 97.9 | 106 | 97.8 | 102 | 104 | 100 | 99.9 | 87.9 | 96.9 | 101 | 105 | 97.1 | 103 | 98.1 | 101 | 106 | 100 | 96.5 | 92.2 | 90.9 | > 10 | > 10 | > 10 | > 10 | > 10 |
| CCn1c(-c2nonc2N)nc2cncc(CNC3CCNCC3)c21 | 3.9 | 0 | 0 | 1.3 | 0.4 | 94.8 | 104 | 89.1 | 80.6 | 79.7 | 93.3 | 104 | 101 | 93.8 | 94.1 | 94 | 103 | 102 | 120 | 114 | 93.9 | 98.2 | 96.7 | 97.3 | 76.3 | 93.6 | 95.1 | 105 | 105 | 80.4 | > 10 | > 10 | > 10 | > 10 | > 10 |
| FC(F)(F)c1ccc(CNc2ccc(Cc3c[nH]c4ncccc34)cn2)cc1 [PLX647] | 0.1 | 0 | 0 | 0 | 0 | 100 | 97.6 | 97.4 | 101 | 86.9 | 95.7 | 98.8 | 96.7 | 98.5 | 96.8 | 102 | 96.4 | 105 | 93.9 | 94.7 | 104 | 97.6 | 101 | 97.7 | 96.4 | 96 | 102 | 94.7 | 94.2 | 91.3 | > 10 | > 10 | > 10 | > 10 | > 10 |
| O=C(Nc1ccc(Oc2ccc(Cl)cn2)c(Cl)c1)c1ccccn1 | 0 | 0 | 0 | 0 | 0 | 104 | 108 | 109 | 93.7 | 99.1 | 101 | 101 | 102 | 96 | 95.8 | 103 | 108 | 95.1 | 98.6 | 97.7 | 102 | 105 | 99.6 | 104 | 96.2 | 98.1 | 97.8 | 104 | 104 | 93.1 | > 10 | > 10 | > 10 | > 10 | > 10 |
| CCN1CCCC1=O [1-ethyl-2-pyrrolidone] | 0 | 0 | 0 | 0 | 0 | 99.1 | 99.1 | 94 | 99.9 | 97.2 | 103 | 103 | 97 | 97.9 | 95.3 | 97.9 | 104 | 104 | 98.6 | 104 | 95.9 | 98.4 | 104 | 95.5 | 102 | 93.6 | 99.6 | 99.4 | 88 | 95.2 | > 10 | > 10 | > 10 | > 10 | > 10 |
| CN(CCOc1ccc(CC2SC(=O)NC2=O)cc1)c1ccccn1 (stereo not given) [rosiglitazone] | 0 | 2.8 | 0 | 0 | 0.9 | 94.9 | 97.1 | 93.5 | 96.5 | 89.5 | 96.3 | 95.2 | 88.3 | 82.1 | 81.3 | 105 | 96.2 | 94.6 | 102 | 108 | 96.7 | 97.2 | 98.1 | 98.5 | 100 | 99.9 | 93 | 93.9 | 81.9 | 90.7 | > 10 | > 10 | > 10 | > 10 | > 10 |
| BrC1C(Br)C(Br)C(Br)C(Br)C1Br (stereo not given) [1,2,3,4,5,6-hexabromocyclohexane] | 0 | 0 | 0 | 0 | 0 | 95.8 | 106 | 89.1 | 99.8 | 90.2 | 99.7 | 107 | 101 | 105 | 93.9 | 106 | 104 | 104 | 87.3 | 105 | 99.1 | 96.4 | 101 | 95.1 | 101 | 96.4 | 93.6 | 97.3 | 102 | 98.4 | > 10 | > 10 | > 10 | > 10 | > 10 |
| OCc1ccc(O[C@@H]2O[C@H](CO)[C@@H](O)[C@H](O)[C@H]2O)cc1 [gastrodin] | 0 | 0 | 0 | 0 | 0 | 99.1 | 104 | 104 | 107 | 117 | 95.4 | 99.6 | 95.1 | 92.1 | 95.3 | 108 | 94.1 | 94.2 | 110 | 104 | 97.7 | 99.9 | 100 | 99.7 | 98.1 | 106 | 95.9 | 107 | 92 | 106 | > 10 | > 10 | > 10 | > 10 | > 10 |
